Data from patent US20090111894A1, “Method of Preventing Microbial Growth” (priority 2005, published 2009).

Key:
Assay type in all cases: cell-based
Echerichia coli = experiment: Inhibition effect in model media (MIC), optical density growth reading; conditions: BHI, 30° C., weight/volume
Method: (§1) The inhibition effect of Hydroxyacetaldehyde was tested in model media at various concentration levels and at 3 different pH's and against various micro-organisms at 30° C.
(§2) The medium was Brain Heart Infusion Broth (BHI) or Malt Water. Tested were: • Bacillus subtilus in BHI • Echerichia coli in BHI • Staphylococcus aureus in BHI • Saccharomyces cerevisieae in Malt water • Penicillium crustosum in Malt water
(§3) The pH of the media was set in the medium to 4.5 5.0 and 6.0, respectively. Hydroxyacetaldehyde concentrations were: 0, 0.0125, 0.025, 0.05, 0.1, 0.2, and 0.4%. Growth was recorded by an automated Optical Density reader (NEPHELOstar Galaxy of the manufacturer BMG).

Staphylococcus aureus = experiment: as above; conditions: BHI, 30° C., weight/volume
Method: as §1, §2, §3

Bacillus subtilus = experiment: as above; conditions: BHI, 30° C., weight/volume
Method: as §1, §2, §3

Penicillium crustosum = experiment: as above; conditions: Malt water, 30° C., weight/volume
Method: as §1, §2, §3

Zygosaccharomyces bailii = experiment: Inhibition effect in Ice Tea (MIC); conditions: Lipton Ice Tea with apple juice, 25° C.
Method: (§4) The inhibition effect of Hydroxyacetaldehyde was tested in Ice Tea at various concentrations, at 2 different pH's and against 2 micro-organisms at 25° C. Tested were: • Zygosaccharomyces bailii • Talaromyces trachyspermus
(§5) The medium was Lipton Ice Tea with apple juice. The pH of the medium was set at 4.5 and 6.0, respectively. Hydroxyacetaldehyde concentrations were: 0, 0.0125, 0.025, 0.05, 0.1, 0.2, 0.4 and 0.8%. Growth was recorded by an automated optical density reader NEPHELOstar Galaxy of the manufacturer BMG. The MIC (Minimal Inhibition Concentration) for the different micro-organisms were: […]

[1] = system: Talaromyces trachyspermus; experiment: Inhibition effect in Ice Tea (MIC); conditions: Lipton Ice Tea with apple juice, 25° C.
Method: as §4, §5

Moulds = experiment: Reduction of organisms in corrugated board pulp; conditions: pulp at 20° C.
Method: (§6) Contamination with moulds and bacteria is known to be serious problem for corrugated board. Hydroxyacetaldehyde was added to the corrugated board pulp during production to determine if it would be possible to produce a mould-free corrugated board.
(§7) To 40 gram of small pieces of cut corrugated board 300 ml of sterile water was added. This was mixed to form a pulp. This pulp was divided into 3 portions to which 0, 0.5 and 2% hydroxyacetaldehyde was added. The pulp was incubated at 20° C. and after 0, 2, 5 and 22 hours the number of organisms per gram pulp was measured. The reduction factor (cfu at to/cfu at tn) was as follows: […]

Bacteria = experiment: Reduction of organisms in corrugated board pulp; conditions: pulp at 20° C.
Method: as §6, §7

Candida parapsilosis = experiment: Inhibition effect in model media (MIC), optical density growth reading; conditions: 30° C., weight/volume
[2] = 0.5 hydroxyacetaldehyde, incubation 2 hours
[3] = 0.5 hydroxyacetaldehyde, incubation 5 hours
[4] = 0.5 hydroxyacetaldehyde, incubation 22 hours
[5] = 2% hydroxyacetaldehyde, incubation 2 hours
[6] = 2% hydroxyacetaldehyde, incubation 5 hours
[7] = 2% hydroxyacetaldehyde, incubation 22 hours

O=CCO [Hydroxyacetaldehyde]
MIC (Minimal Inhibition Concentration) (Echerichia coli; pH 4.5): 0.1%
MIC (Minimal Inhibition Concentration) (Echerichia coli; pH 5): 0.1%
MIC (Minimal Inhibition Concentration) (Echerichia coli; pH 6): 0.1%
MIC (Minimal Inhibition Concentration) (Staphylococcus aureus; pH 4.5): 0.05%
MIC (Minimal Inhibition Concentration) (Staphylococcus aureus; pH 5): 0.05%
MIC (Minimal Inhibition Concentration) (Staphylococcus aureus; pH 6): 0.05%
MIC (Minimal Inhibition Concentration) (Bacillus subtilus; pH 4.5): 0.1%
MIC (Minimal Inhibition Concentration) (Bacillus subtilus; pH 5): 0.1%
MIC (Minimal Inhibition Concentration) (Bacillus subtilus; pH 6): 0.1%
MIC (Minimal Inhibition Concentration) (Penicillium crustosum; pH 4.5): 0.1%
MIC (Minimal Inhibition Concentration) (Penicillium crustosum; pH 6): 0.1%
MIC (Minimal Inhibition Concentration) (Zygosaccharomyces bailii; pH 4.5): 0.8%
MIC (Minimal Inhibition Concentration) (Zygosaccharomyces bailii; pH 6): 0.8%
MIC (Minimal Inhibition Concentration) ([1]; pH 4.5): 0.1%
MIC (Minimal Inhibition Concentration) ([1]; pH 6): 0.1%
reduction factor (cfu at to/cfu at tn) (Moulds; [2]): 20
reduction factor (cfu at to/cfu at tn) (Moulds; [3]): 40
reduction factor (cfu at to/cfu at tn) (Moulds; [4]): >40
reduction factor (cfu at to/cfu at tn) (Moulds; [5]): >40
reduction factor (cfu at to/cfu at tn) (Moulds; [6]): >40
reduction factor (cfu at to/cfu at tn) (Moulds; [7]): >40
reduction factor (cfu at to/cfu at tn) (Bacteria; [2]): 3.8
reduction factor (cfu at to/cfu at tn) (Bacteria; [3]): 4.1
reduction factor (cfu at to/cfu at tn) (Bacteria; [4]): 25.5
reduction factor (cfu at to/cfu at tn) (Bacteria; [5]): 7.4
reduction factor (cfu at to/cfu at tn) (Bacteria; [6]): 26.4
reduction factor (cfu at to/cfu at tn) (Bacteria; [7]): >1.4e4
MIC (Minimal Inhibition Concentration) (Candida parapsilosis; pH 4.5): 0.2%
MIC (Minimal Inhibition Concentration) (Candida parapsilosis; pH 6): 0.2%
